Test results published in US20050266577A1, “Ultrafiltration device for drug binding studies” (Millipore Corporation, priority 2002, published 2005).
Where two headings read alike, the source gives them in different places.

How the values were obtained:
[1] = Non-specific binding, second control plate with ultrafiltrate diluent added; conditions: 10 nanomolar CE in phosphate buffered saline
Description: Each membrane was tested in triplicate. Each Microcon® device was placed in the appropriately labeled retentate/filtrate vial. If the membrane to be tested needed to be pre-wetted before proceeding with this process, one needed to be sure that the membrane received a final rinse with PBS prior to testing. 200 µl of analyte solution was added to each Microcon® device and spun to dryness (20-30 minutes) in a microcentrifuge (14000-×g). The membranes were rinsed by adding 25 µl to each device and spun in the microcentrifuge (14000-×g) for 10 minutes.
To determine the amount of non-specific binding to the membrane, the collar and gasket were removed and the membrane placed in a glass scintillation vial. Three ml of scintillation cocktail was added to each vial. A 20 µl aliquot of the original solution was added to 3 ml of scintillation cocktail for reference. Radioactivity (in DPM) was determined by liquid scintillation counting using 1 minute counting periods and a stored quench curve as described by the equipment manufacturer.
The ratio of radioactivity found on the membrane compared to the total amount of radioactivity added was reported as a percentage and was used to assess CE NSB of the membrane being tested.

[2] = 10 nanomolar CE concentration in phosphate buffered saline
Description: Microcon® Device Preparation:
The membrane to be tested was cut with the appropriate die cutter for the diameter of the device. The assembly consisted of placing the membrane on the support followed by addition of a gasket.
The collar is then placed on top of the assembly and sealed at a pressure varying from 65 to 100 psi.
Radioactive Analyte Preparation:
In order to prepare the analyte we used the following equation: [Concentration of Analyte]×[Volume needed for the experiment in microliter]×[Specific activity (Ci/mol)]×[1/Concentration (Ci/µl)].
The required volume of analyte was added to an appropriate volume of PBS. 200 µl of this preparation was used per sample.
Each membrane was tested in triplicate.
A first control plate, a Multiscreen® 96 well plate containing a heat sealed UPE (ultrahigh molecular weight polyethylene) composite cellulosic UF membrane, was used in a binding study.

[3] = No support, table after second control plate (ultrafiltrate diluent)
[4] = Support: UPE composite, second control plate, ultrafiltrate diluent added

SMILES | % Non Specific Binding [1, 3] [%] | % Non Specific Binding [1, 4] [%] | % Non Specific Binding ([2]; No support) [%] | % Non Specific Binding ([2]; Support: Non-woven 1) [%] | % Non Specific Binding ([2]; Support: Non-woven 2) [%] | % Non Specific Binding ([2]; Support: UPE composite) [%]
C[C@H]1O[C@@H](O[C@H]2[C@@H](O)C[C@H](O[C@H]3[C@@H](O)C[C@H](O[C@H]4CC[C@@]5(C)[C@H](CC[C@@H]6[C@@H]5C[C@@H](O)[C@]5(C)[C@@H](C7=CC(=O)OC7)CC[C@]65O)C4)O[C@@H]3C)O[C@@H]2C)C[C@H](O)[C@@H]1O [digoxin] | 3 | 92 | 3 | 3 | 2 | 47
C[C@]12CC[C@H]3[C@@H](CCC4=CC(=O)CC[C@@]43C)[C@@H]1CC[C@@H]2O [testosterone] | 3 | 80 | 4 | 1 | 1 | 101
CN(Cc1cnc2nc(N)nc(N)c2n1)c1ccc(C(=O)N[C@@H](CCC(=O)O)C(=O)O)cc1 [methotrexate] |  |  | 4 | 0 | 3 | 16
CC(C)NCC(O)COc1cccc2ccccc12 (centres unmarked) [proprananol] |  |  | 4 | 0 | 2 | 61
OC[C@@H](O)[C@@H](O)[C@H](O)[C@H](O)CO [mannitol] | 1 | 2 | 2 | 2 | 1 | 1
